Reference: patent US12552766B2, “Pesticidally active azole amide compounds” (SYNGENTA CROP PROTECTION AG, priority 2019, dated 2026)

Key:
Format in all cases: in vivo
[1] = tested on: Chilo suppressalis (Striped Rice Stemborer); assay: Example B4: Chilo suppressalis, artificial diet; settings: 144 h, application rate of 200 ppm, L2 larvae, 6 days after infestation, read-out: control in at least one of the three categories (mortality, anti-feedant effect, or growth inhibition)
Protocol: 24-well microtiter plates with artificial diet were treated with aqueous test solutions prepared from 10′000 ppm DMSO stock solutions by pipetting. After drying, the plates were infested with L2 larvae (6-8 per well). The samples were assessed for mortality, anti-feeding effect, and growth inhibition in comparison to untreated samples 6 days after infestation. Control of Chilo suppressalis by a test sample is given when at least one of the categories mortality, anti-feedant effect, and growth inhibition is higher than the untreated sample.

[2] = tested on: Plutella xylostella (Diamondback Moth); assay: Example B13: Plutella xylostella, artificial diet, 96-well; settings: 216 h, application rate of 500 ppm, eggs/L1 larvae, 9 days after infestation
Protocol: 96-well microtiter plates containing artificial diet were treated with aqueous test solutions, prepared from 10′000 ppm DMSO stock solutions, by a liquid handling robot. After drying, eggs (˜30 per well) were infested onto a netted lid which was suspended above the diet. The eggs hatch and L1 larvae move down to the diet. The samples were assessed for mortality 9 days after infestation.

[3] = tested on: Plutella xylostella (Diamond Back Moth); assay: Example B5: Plutella xylostella, artificial diet, 24-well; settings: 192 h, application rate of 200 ppm, eggs, 8 days after infestation, read-out: control in at least one of the two categories (mortality or growth inhibition)
Protocol: 24-well microtiter plates with artificial diet were treated with aqueous test solutions prepared from 10′000 ppm DMSO stock solutions by pipetting. After drying, Plutella eggs were pipetted through a plastic stencil onto a gel blotting paper and the plate was closed with it. The samples were assessed for mortality and growth inhibition in comparison to untreated samples 8 days after infestation.

[4] = tested on: Diabrotica Balteata (Corn Root Worm); assay: Example B1: Diabrotica balteata, spray on maize sprouts; settings: 96 h, application rate of 200 ppm, L2 larvae, 4 days after infestation, read-out: control in at least one of the two categories (mortality or growth inhibition)
Protocol: Maize sprouts placed onto an agar layer in 24-well microtiter plates were treated with aqueous test solutions prepared from 10′000 ppm DMSO stock solutions by spraying. After drying, the plates were infested with L2 larvae (6 to 10 per well). The samples were assessed for mortality and growth inhibition in comparison to untreated samples 4 days after infestation.

[5] = tested on: Spodoptera littoralis (Egyptian Cotton Leaf Worm); assay: Example B9: Spodoptera littoralis, spray on cotton leaf discs; settings: foliar, 72 h, application rate of 200 ppm, L1 larvae, 3 days after infestation, read-out: control in at least one of the three categories (mortality, anti-feedant effect, or growth inhibition)
Protocol: Cotton leaf discs were placed onto agar in 24-well microtiter plates and sprayed with aqueous test solutions prepared from 10′000 ppm DMSO stock solutions. After drying the leaf discs were infested with five L1 larvae. The samples were assessed for mortality, anti-feeding effect, and growth inhibition in comparison to untreated samples 3 days after infestation. Control of Spodoptera littoralis by a test sample is given when at least one of the categories mortality, anti-feedant effect, and growth inhibition is higher than the untreated sample.

CC(NC(=O)c1cc(Br)cc(C(F)(F)F)c1)c1nc(Br)nn1-c1ncc(OCC(F)F)cn1 (centres unmarked) [Compound P18, 3-bromo-N-[1-[5-bromo-2-[5-(2,2-difluoroethoxy)pyrimidin-2-yl]-1,2,4-triazol-3-yl]ethyl]-5-(trifluoromethyl) benzamide]
≥ 80%: percent control (mortality, anti-feedant effect or growth inhibition) at 200 ppm [1] | mortality at 500 ppm [2] | percent control (mortality or growth inhibition) at 200 ppm [3] | percent control (mortality or growth inhibition) at 200 ppm [4] | percent control (mortality, anti-feedant effect or growth inhibition) at 200 ppm [5]

CC(NC(=O)c1cc(C(F)(F)F)cc(C(F)(F)F)c1)c1nc(Br)nn1-c1ccc(OCC(F)F)cn1 (centres unmarked) [Compound P15, N-[1-[5-bromo-2-[5-(2,2-difluoroethoxy)-2-pyridyl]-1,2,4-triazol-3-yl]ethyl]-3,5-bis(trifluoromethyl) benzamide]
≥ 80%: percent control (mortality, anti-feedant effect or growth inhibition) at 200 ppm [1] | mortality at 500 ppm [2] | percent control (mortality or growth inhibition) at 200 ppm [3] | percent control (mortality or growth inhibition) at 200 ppm [4] | percent control (mortality, anti-feedant effect or growth inhibition) at 200 ppm [5]

CC(NC(=O)c1cc(OCC(F)(F)F)cc(C(F)(F)F)c1)c1nc(Br)nn1-c1ncc(OC(F)F)cn1 (centres unmarked) [Compound P4, N-[1-[5-bromo-2-[5-(difluoromethoxy)pyrimidin-2-yl]-1,2,4-triazol-3-yl]ethyl]-3-(2,2,2-trifluoroethoxy)-5-(trifluoromethyl) benzamide]
≥ 80%: percent control (mortality, anti-feedant effect or growth inhibition) at 200 ppm [1] | mortality at 500 ppm [2] | percent control (mortality or growth inhibition) at 200 ppm [3] | percent control (mortality or growth inhibition) at 200 ppm [4] | percent control (mortality, anti-feedant effect or growth inhibition) at 200 ppm [5]

CC(NC(=O)c1cc(C(F)(F)F)cc(C(F)(F)F)c1)c1nc(Br)nn1-c1ccc(OCC(F)(F)F)cn1 (centres unmarked) [Compound P17, N-[1-[5-bromo-2-[5-(2,2,2-trifluoroethoxy)-2-pyridyl]-1,2,4-triazol-3-yl]ethyl]-3,5-bis(trifluoromethyl) benzamide]
≥ 80%: percent control (mortality, anti-feedant effect or growth inhibition) at 200 ppm [1] | mortality at 500 ppm [2] | percent control (mortality or growth inhibition) at 200 ppm [3] | percent control (mortality or growth inhibition) at 200 ppm [4] | percent control (mortality, anti-feedant effect or growth inhibition) at 200 ppm [5]

CC(NC(=O)c1cc(OCC(F)(F)F)cc(C(F)(F)F)c1)c1nc(Br)nn1-c1ccc(C#N)cn1 (centres unmarked) [Compound P21, N-[1-[5-bromo-2-(5-cyano-2-pyridyl)-1,2,4-triazol-3-yl]ethyl]-3-(2,2,2-trifluoroethoxy)-5-(trifluoromethyl) benzamide]
≥ 80%: percent control (mortality, anti-feedant effect or growth inhibition) at 200 ppm [1] | mortality at 500 ppm [2] | percent control (mortality or growth inhibition) at 200 ppm [3] | percent control (mortality or growth inhibition) at 200 ppm [4] | percent control (mortality, anti-feedant effect or growth inhibition) at 200 ppm [5]

CC(NC(=O)c1cc(C(F)F)cc(C(F)(F)F)c1)c1nc(Br)nn1-c1ncc(OC(F)F)cn1 (centres unmarked) [Compound P28, N-[1-[5-bromo-2-[5-(difluoromethoxy)pyrimidin-2-yl]-1,2,4-triazol-3-yl]ethyl]-3-(difluoromethyl)-5-(trifluoromethyl) benzamide]
≥ 80%: percent control (mortality, anti-feedant effect or growth inhibition) at 200 ppm [1] | mortality at 500 ppm [2] | percent control (mortality or growth inhibition) at 200 ppm [3] | percent control (mortality or growth inhibition) at 200 ppm [4] | percent control (mortality, anti-feedant effect or growth inhibition) at 200 ppm [5]

CC(NC(=O)c1cc(OC(F)F)cc(C(F)(F)F)c1)c1nc(Br)nn1-c1ncc(OC(F)F)cn1 (centres unmarked) [Compound P3, N-[1-[5-bromo-2-[5-(difluoromethoxy)pyrimidin-2-yl]-1,2,4-triazol-3-yl]ethyl]-3-(difluoromethoxy)-5-(trifluoromethyl) benzamide]
≥ 80%: percent control (mortality, anti-feedant effect or growth inhibition) at 200 ppm [1] | mortality at 500 ppm [2] | percent control (mortality or growth inhibition) at 200 ppm [3] | percent control (mortality or growth inhibition) at 200 ppm [4] | percent control (mortality, anti-feedant effect or growth inhibition) at 200 ppm [5]

CC(NC(=O)c1cc(Cl)cc(C(F)(F)F)c1)c1nc(Br)nn1-c1ccc(OCC(F)F)cn1 (centres unmarked) [Compound P49, N-[1-[5-bromo-2-[5-(2,2-difluoroethoxy)-2-pyridyl]-1,2,4-triazol-3-yl]ethyl]-3-chloro-5-(trifluoromethyl) benzamide]
≥ 80%: percent control (mortality, anti-feedant effect or growth inhibition) at 200 ppm [1] | mortality at 500 ppm [2] | percent control (mortality or growth inhibition) at 200 ppm [3] | percent control (mortality or growth inhibition) at 200 ppm [4] | percent control (mortality, anti-feedant effect or growth inhibition) at 200 ppm [5]

CC(NC(=O)c1cc(Cl)cc(C(F)(F)F)c1)c1nc(Br)nn1-c1ncc(OCC(F)F)cn1 (centres unmarked) [Compound P27, N-[1-[5-bromo-2-[5-(2,2-difluoroethoxy)pyrimidin-2-yl]-1,2,4-triazol-3-yl]ethyl]-3-chloro-5-(trifluoromethyl) benzamide]
≥ 80%: percent control (mortality, anti-feedant effect or growth inhibition) at 200 ppm [1] | mortality at 500 ppm [2] | percent control (mortality or growth inhibition) at 200 ppm [3] | percent control (mortality or growth inhibition) at 200 ppm [4] | percent control (mortality, anti-feedant effect or growth inhibition) at 200 ppm [5]

CC(NC(=O)c1cc(C(F)F)cc(C(F)(F)F)c1)c1nc(Br)nn1-c1ncc(OCC(F)(F)F)cn1 (centres unmarked) [Compound P42, N-[1-[5-bromo-2-[5-(2,2,2-trifluoroethoxy)pyrimidin-2-yl]-1,2,4-triazol-3-yl]ethyl]-3-(difluoromethyl)-5-(trifluoromethyl) benzamide]
≥ 80%: percent control (mortality, anti-feedant effect or growth inhibition) at 200 ppm [1] | mortality at 500 ppm [2] | percent control (mortality or growth inhibition) at 200 ppm [3] | percent control (mortality or growth inhibition) at 200 ppm [4] | percent control (mortality, anti-feedant effect or growth inhibition) at 200 ppm [5]

CC(NC(=O)c1cc(Br)cc(C(F)(F)F)c1)c1nc(Br)nn1-c1ncc(OCC(F)(F)F)cn1 (centres unmarked) [Compound P41, 3-bromo-N-[1-[5-bromo-2-[5-(2,2,2-trifluoroethoxy)pyrimidin-2-yl]-1,2,4-triazol-3-yl]ethyl]-5-(trifluoromethyl) benzamide]
≥ 80%: percent control (mortality, anti-feedant effect or growth inhibition) at 200 ppm [1] | mortality at 500 ppm [2] | percent control (mortality or growth inhibition) at 200 ppm [3] | percent control (mortality or growth inhibition) at 200 ppm [4] | percent control (mortality, anti-feedant effect or growth inhibition) at 200 ppm [5]

CC(NC(=O)c1cc(Br)cc(C(F)(F)F)c1)c1nc(Br)nn1-c1ccc(OC(F)F)cn1 (centres unmarked) [Compound P13, 3-bromo-N-[1-[5-bromo-2-[5-(difluoromethoxy)-2-pyridyl]-1,2,4-triazol-3-yl]ethyl]-5-(trifluoromethyl) benzamide]
≥ 80%: percent control (mortality, anti-feedant effect or growth inhibition) at 200 ppm [1] | mortality at 500 ppm [2] | percent control (mortality or growth inhibition) at 200 ppm [3] | percent control (mortality or growth inhibition) at 200 ppm [4] | percent control (mortality, anti-feedant effect or growth inhibition) at 200 ppm [5]

CC(=O)c1nc(C(C)NC(=O)c2cc(C(F)(F)F)cc(C(F)(F)F)c2)n(-c2ccc(C#N)cn2)n1 (centres unmarked) [Compound P57, N-[1-[5-acetyl-2-(5-cyano-2-pyridyl)-1,2,4-triazol-3-yl]ethyl]-3,5-bis(trifluoromethyl) benzamide]
≥ 80%: percent control (mortality, anti-feedant effect or growth inhibition) at 200 ppm [1] | mortality at 500 ppm [2] | percent control (mortality or growth inhibition) at 200 ppm [3] | percent control (mortality or growth inhibition) at 200 ppm [4] | percent control (mortality, anti-feedant effect or growth inhibition) at 200 ppm [5]
